From patent publication US20160115225A1, “Methods of Reducing Methylglyoxal (MGO) Modification of Recombinant Proteins in Cell Culture” (AbbVie Inc., priority 2014, published 2016)

Tested on: adalimumab producing cell line 1
Test: WCX-10 quantification of acidic species of adalimumab, bioreactor culture, cell line 1
Assay type: cell-based
Protocol: Two adalimumab producing cell lines were employed in the studies covered here. Upon thaw, cells were cultured in their respective growth media in a combination of vented non-baffled shake flasks (Corning) on a shaker platform at 110 RPM (cell line 1) and 140 RPM (cell line 2) and 10 L or 20 L wave bags (GE). Cultures were propagated in a 35° C., 5% CO2 incubator for cell line 1 and 36° C., 5% CO2 incubator for cell line 2 to obtain the required number of cells to be able to initiate production stage cultures. For the bioreactor (3 L Applikon) experiments (Examples 1, 2 and 3), 3 L, bioreactors (1.5 L working volume) were initiated at 35° C. (cell line 1) and 36° C. (cell line 2), 30% DO, 200 rpm, pH of 7.1. In some of the conditions, pH was ramped down to 6.8 in three days and kept at pH 6.8 thereafter. The inclusion of pH ramp for a particular condition is indicated by the final pH in the experimental design. If the final pH is 7.1, then it indicates no pH ramp was performed, whereas if the final pH is 6.8, a pH ramp was performed on day 3 from pH 7.1 to pH 6.8. In some of the conditions, a temperature shift was performed. When temperature shift was performed, the temperature was lowered to 33° C. Again, the conditions where such a temperature shift was performed can be identified from the final temperature in the experimental design. Cultures were run in extended batch mode with the addition of a desired amount of 40% glucose stock solution was fed based on glucose measurements. The harvest procedure of the reactors involved centrifugation of the culture sample at 3,000 RPM for 30 min and storage of supernatant in PETG bottles at −80° C. before submission for protein A purification, WCX-10 analysis and Lys-C peptide mapping. This method is employed towards the quantification of the acidic species and other charge variants present in cell culture harvest samples. Cation exchange chromatography was performed on a Dionex ProPac WCX-10, Analytical column (Dionex, Calif.). The mobile phases used were 10 mM Sodium Phosphate dibasic pH 7.5 (Mobile phase A) and 10 mM Sodium Phosphate dibasic, 500 mM Sodium Chloride pH 5.5 (Mobile phase B). A binary gradient (94% A, 6% B: […]; 84% A, 16% B: 20-22 min; 0% A, 100% B: 22-28 min; 94% A, 6% B: 28-34 min) was used with detection at 280 nm. Quantitation is based on the relative area percent of detected peaks. The peaks that elute at relative residence time earlier than the main peak corresponding to the drug product are together represented as the acidic peaks. Cell line 1 was cultured in IVGN production medium supplemented with or without 2DDG (0.25 g/l). Prior to this experiment, a study was performed in a shake flask culture to evaluate the dose effect of 2DDG on this cell line and optimize a dose range of reactor evaluation (data not shown). In this experiment, the cultures were performed in 3 L bioreactors in batch format (pH 7.1, DO—30%, 200 rpm) with only glucose feed as described in Example 1. Temperature shift was implemented in some tests (35° C. to 33° C. on day 5 of culture). Both 2DDG supplementation and temperature shift were employed as methods to reduce glucose consumption of the cells in culture. The hypothesis was that the reduction in glucose consumption will translate into reduced synthesis of MGO in cell culture. As a result, a reduction in MGO modification and acidic species of the protein would be achieved. In this experiment, the cultures were performed in 3 L bioreactors in batch format (DO—30%, 200 rpm) with only glucose feed as described in the materials and methods. The control condition was run at a constant temperature of 35° C., constant pH of 7.1 without any supplementation of 2DDG or arginine (condition #10). […]

In the case of `O=CC[C@@H](O)[C@H](O)[C@H](O)CO` [Test 2DDG, 2-Deoxy-D-Glucose], the “percentage of acidic species” value (Example 2, 2DDG 0.25 g/l with temperature shift 35° C. to 33° C. on day 5, Day 10 harvest, control 26.6%) is reported as 17.4%, the “percentage of acidic species” value (Example 2, 2DDG 0.25 g/l, no temperature shift, Day 10 harvest, control 26.6%) is reported as 22.9% and the “percentage of acidic species” value (Example 3, 2DDG 0.25 g/l alone, day 11 harvest, control 68.4%) is reported as 48.5%. The “percentage of acidic species” value (Example 3, 2DDG 0.25 g/l and temperature shift, day 11 harvest, control 68.4%) was 22.7%, the “percentage of acidic species” value (Example 3, 2DDG, temperature shift and arginine supplementation (4 g/l), day 11 harvest) was 12.6% and the “percentage of acidic species” value (Example 3, 2DDG, temperature shift and lower pH (6.8), day 11 harvest) was 15.2%. For the same compound, the “percentage of acidic species” value (Example 3, 2DDG, temperature shift, lower pH and arginine supplementation, day 11 harvest) was 12.0%.
